Test results from patent US20220387491A1, “METHODS OF MAKING CELLULAR THERAPIES” (Secura Bio, Inc., priority 2019, published 2022).
Entries after “also recorded” stand apart in the source; their conditions may differ.

Columns and labels:
T cells = experiment: Expression of T cell exhaustion markers (TIM-3, LAG-3) by flow cytometry; type: cell-based, human
Text: (§1) These early memory T cells populations have been associated with CAR-T cells that induce complete remissions.

PI3K-γ [1] = biological target: T1, PI3K-γ (Homo sapiens, UniProt P48736); experiment: Whole blood assay, p-Akt S473 in fMLP-stimulated monocytes; type: cell-based; parameters: from tissue; host or cells: whole blood; fMLP-stimulated monocytes (gated by flow cytometry); settings: for PI3K-γ inhibition at clinically achievable exposures (in words): whole blood assay related to clinical plasma exposure
T1 sequence (P48736 whole entry): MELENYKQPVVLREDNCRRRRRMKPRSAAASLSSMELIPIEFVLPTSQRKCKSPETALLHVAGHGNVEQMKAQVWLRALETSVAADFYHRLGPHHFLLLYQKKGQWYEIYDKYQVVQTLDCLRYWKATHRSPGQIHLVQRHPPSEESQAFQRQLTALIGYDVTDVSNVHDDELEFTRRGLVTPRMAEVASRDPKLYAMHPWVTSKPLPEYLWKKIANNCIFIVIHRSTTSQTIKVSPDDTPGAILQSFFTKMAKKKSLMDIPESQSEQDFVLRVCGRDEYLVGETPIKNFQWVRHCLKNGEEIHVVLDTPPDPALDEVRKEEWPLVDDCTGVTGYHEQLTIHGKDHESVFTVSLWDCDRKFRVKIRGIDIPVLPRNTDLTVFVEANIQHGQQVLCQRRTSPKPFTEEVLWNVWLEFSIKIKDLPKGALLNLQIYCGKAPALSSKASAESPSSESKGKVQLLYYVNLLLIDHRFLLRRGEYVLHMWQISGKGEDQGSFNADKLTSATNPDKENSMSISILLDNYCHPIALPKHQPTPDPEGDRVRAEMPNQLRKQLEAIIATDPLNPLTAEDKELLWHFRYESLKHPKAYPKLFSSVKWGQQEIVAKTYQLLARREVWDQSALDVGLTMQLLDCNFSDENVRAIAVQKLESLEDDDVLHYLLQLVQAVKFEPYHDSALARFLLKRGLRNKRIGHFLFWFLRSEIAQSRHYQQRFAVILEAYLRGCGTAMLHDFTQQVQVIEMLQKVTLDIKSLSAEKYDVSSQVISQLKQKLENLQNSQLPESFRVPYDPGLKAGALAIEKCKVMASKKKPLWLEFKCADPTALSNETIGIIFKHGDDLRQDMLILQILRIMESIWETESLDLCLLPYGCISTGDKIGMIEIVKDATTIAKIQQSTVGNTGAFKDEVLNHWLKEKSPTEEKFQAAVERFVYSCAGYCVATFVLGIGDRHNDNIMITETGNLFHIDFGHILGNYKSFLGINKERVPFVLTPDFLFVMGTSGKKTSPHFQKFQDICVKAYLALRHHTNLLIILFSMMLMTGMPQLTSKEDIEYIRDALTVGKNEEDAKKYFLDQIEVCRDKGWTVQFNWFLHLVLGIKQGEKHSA
Protocol: Briefly, LPS-stimulated monocytes and fMLP-stimulated monocytes were cultured in the presence of 2 μg/mL LPS or 50 ng/mL fMLP, respectively. After 10 minutes of stimulation, red blood cells were lysed and remaining leukocytes were fixed, permeabilized and stained with CD45, CD3, CD45RA, CD14, CD19 and p-Akt S473 (D9E clone) antibodies. […] Monocytes were gated and the percentage of positive p-Akt monocytes was measured. IC50 dose curves were generated and IC50 values calculated.
(§2) Whole blood potencies against PI3K-δ and PI3K-γ were measured through inhibition of p-Akt in LPS-stimulated monocytes and fMLP-stimulated monocytes, respectively. Whole blood assay IC50 values, which encompass enzyme inhibition, cell penetration, and protein binding of inhibitors, are related to reported clinical plasma exposures of each agent at recommended phase II dose (RP2D).

PI3K-γ [2] = biological target: T1, PI3K-γ; experiment: PI3K-γ target inhibition in follicular lymphoma patients after oral dosing; type: in vivo; parameters: from tissue; host or cells: whole blood of follicular lymphoma patients after oral dosing
Protocol: (§3) The relative effects of different PI3K inhibitors on PI3K-δ and PI3K-γ cell signaling downstream of LPS and fMLP, respectively, were assessed in whole blood using phosphorylated (p)-Akt serine-473 as the readout. Briefly, LPS-stimulated monocytes and fMLP-stimulated monocytes were cultured in the presence of 2 μg/mL LPS or 50 ng/mL fMLP, respectively. After 10 minutes of stimulation, red blood cells were lysed and remaining leukocytes were fixed, permeabilized and stained with CD45, CD3, CD45RA, CD14, CD19 and p-Akt S473 (D9E clone) antibodies. Data was acquired on an LSRII cytometer (BD Biosciences) equipped with at least 4 lasers (405, 488, 561, and 640 nm). Monocytes were gated and the percentage of positive p-Akt monocytes was measured. IC50 dose curves were generated and IC50 values calculated.
(§4) At cycle 2 Day 1 pre, a timepoint corresponding to the 12 hour point when the next dose is to be given, the degree of inhibition is decreased; however, inhibition is re-established with the administration of the next dose.
Accordingly, BID should then re-establish inhibition in this 60-70% range.

[3] = system: T cells from human donors or CLL patients; experiment: Ex vivo T cell expansion; type: cell-based
[4] = system: T cells taken from CLL patients; experiment: Proportion of early memory T cell populations; type: cell-based, human; settings: 200 nM; compared with standard culture conditions
Text: as §1

CD19 CAR-T cells = experiment: CAR-T-mediated cytotoxicity against tumor cells; type: cell-based; settings: addition during generation of CD19 CAR-T cells
Text: as §1

PI3K-δ [5] = biological target: T2, PI3K-δ (Homo sapiens, UniProt O00329); experiment: Whole blood assay, p-Akt S473 in LPS-stimulated monocytes; type: cell-based; parameters: from tissue; host or cells: whole blood; LPS-stimulated monocytes (gated by flow cytometry); settings: for PI3K-δ inhibition at clinically achievable exposures (in words): whole blood assay related to clinical plasma exposure
T2 sequence (O00329 whole entry): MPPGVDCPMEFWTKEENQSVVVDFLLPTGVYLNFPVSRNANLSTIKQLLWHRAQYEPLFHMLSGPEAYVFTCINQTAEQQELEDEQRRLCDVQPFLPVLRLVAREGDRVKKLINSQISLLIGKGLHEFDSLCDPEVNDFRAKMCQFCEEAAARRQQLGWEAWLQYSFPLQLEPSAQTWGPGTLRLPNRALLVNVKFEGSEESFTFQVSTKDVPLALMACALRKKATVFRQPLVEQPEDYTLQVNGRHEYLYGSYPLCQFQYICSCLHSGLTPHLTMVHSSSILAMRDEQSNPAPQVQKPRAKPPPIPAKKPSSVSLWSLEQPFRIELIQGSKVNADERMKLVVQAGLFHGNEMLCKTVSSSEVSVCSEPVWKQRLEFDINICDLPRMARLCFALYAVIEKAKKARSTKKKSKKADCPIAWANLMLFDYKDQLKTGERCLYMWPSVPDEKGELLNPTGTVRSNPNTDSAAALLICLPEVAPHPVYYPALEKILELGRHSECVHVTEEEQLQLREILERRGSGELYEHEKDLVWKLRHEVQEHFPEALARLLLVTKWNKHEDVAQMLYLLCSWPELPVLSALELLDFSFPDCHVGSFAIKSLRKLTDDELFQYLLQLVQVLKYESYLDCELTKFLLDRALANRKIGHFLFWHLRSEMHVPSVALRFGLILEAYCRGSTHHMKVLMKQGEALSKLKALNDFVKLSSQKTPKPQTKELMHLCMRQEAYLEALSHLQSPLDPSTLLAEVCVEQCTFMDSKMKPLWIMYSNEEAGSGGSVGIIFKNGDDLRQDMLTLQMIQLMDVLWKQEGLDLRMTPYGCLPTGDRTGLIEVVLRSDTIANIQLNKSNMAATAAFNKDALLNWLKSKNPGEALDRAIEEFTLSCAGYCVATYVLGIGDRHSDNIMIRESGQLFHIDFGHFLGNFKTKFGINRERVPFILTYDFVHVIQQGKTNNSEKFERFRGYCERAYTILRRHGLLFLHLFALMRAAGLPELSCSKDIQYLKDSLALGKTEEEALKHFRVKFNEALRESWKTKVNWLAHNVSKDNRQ
T2 sequence (P27986 whole entry partner): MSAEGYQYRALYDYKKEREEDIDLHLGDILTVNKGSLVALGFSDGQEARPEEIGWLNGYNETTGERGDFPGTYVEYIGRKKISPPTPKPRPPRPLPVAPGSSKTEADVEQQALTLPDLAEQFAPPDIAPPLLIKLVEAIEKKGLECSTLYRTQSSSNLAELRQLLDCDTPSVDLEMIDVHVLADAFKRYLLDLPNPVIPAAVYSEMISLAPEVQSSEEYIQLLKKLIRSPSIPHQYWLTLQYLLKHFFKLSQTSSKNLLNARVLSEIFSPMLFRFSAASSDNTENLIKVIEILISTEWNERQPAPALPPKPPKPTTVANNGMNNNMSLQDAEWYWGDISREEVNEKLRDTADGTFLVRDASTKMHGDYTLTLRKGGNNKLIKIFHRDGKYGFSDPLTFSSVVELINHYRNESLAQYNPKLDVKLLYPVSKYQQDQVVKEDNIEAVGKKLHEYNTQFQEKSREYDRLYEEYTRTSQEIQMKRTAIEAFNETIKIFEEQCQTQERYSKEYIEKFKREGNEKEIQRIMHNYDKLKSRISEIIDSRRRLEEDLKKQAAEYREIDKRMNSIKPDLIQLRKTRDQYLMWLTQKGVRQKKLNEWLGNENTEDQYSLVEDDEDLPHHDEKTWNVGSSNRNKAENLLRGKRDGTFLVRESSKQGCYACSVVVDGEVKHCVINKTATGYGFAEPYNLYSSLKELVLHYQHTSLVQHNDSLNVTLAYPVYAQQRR
Protocol: as §3, §2

PI3K-δ [6] = biological target: T2, PI3K-δ; experiment: PI3K-δ target inhibition in follicular lymphoma patients after oral dosing; type: in vivo; parameters: from tissue; host or cells: whole blood of follicular lymphoma patients after oral dosing
Protocol: as §3, §4

[7] = read-out: Cmax (ss); reported clinical plasma exposure at recommended phase II dose (RP2D); cited from earlier work

| Compound | PI3K-γ inhibition at clinically achievable exposures (in words) (PI3K-γ [1]) | concentration of maximal effect on T cell expansion [3] [nM] | PI3K-δ inhibition at clinically achievable exposures (in words) (PI3K-δ [5]) | Cmax [7] [µM] | further results |
| --- | --- | --- | --- | --- | --- |
| C[C@H](Nc1ncnc2[nH]cnc12)c1cc2cccc(Cl)c2c(=O)n1-c1ccccc1 [Duvelisib, (S)-3-(1-((9H-purin-6-yl)amino)ethyl)-8-chloro-2-phenylisoquinolin-1(2H)-one] | inhibited both PI3K-δ and PI3K-γ | 40 | inhibited both PI3K-δ and PI3K-γ | 2.5 | expression of T cell exhaustion markers (TIM-3, LAG-3) (T cells): reduces expression; degree of inhibition of PI3K-γ (PI3K-γ [2]; cycle 2 Day 1 pre): decreased; inhibition of PI3K-γ (PI3K-γ [2]; follicular lymphoma patients, 25 mg, 1 and 4 hours): 60-70%; increase in T cell expansion ([3]; T cells from human donors or CLL patients): 3 to 4 fold; proportion of early memory T cell populations [4]: increases the proportion of early memory T cell populations; cytotoxic activity of CAR-T cells to kill tumor cells (CD19 CAR-T cells): increases; degree of inhibition of PI3K-δ (PI3K-δ [6]; cycle 2 Day 1 pre (12 hour point before next dose)): decreased; inhibition at 25 mg (PI3K-δ [6]; human, follicular lymphoma patients, 25 mg oral, 1 and 4 hours after dosing): 90 to 95% |
| C[C@H](NC(=O)c1c(N)nn2cccnc12)c1cc2cccc(C#Cc3cnn(C)c3)c2c(=O)n1-c1ccccc1 [IPI-549, 2-amino-N-[(1S)-1-[8-[2-(1-methylpyrazol-4-yl)ethynyl]-1-oxo-2-phenylisoquinolin-3-yl]ethyl]pyrazolo[1,5-a]pyrimidine-3-carboxamide] |  |  | not PI3K-δ | 9.1 |  |
| CC[C@H](Nc1ncnc2[nH]cnc12)c1nc2cccc(F)c2c(=O)n1-c1ccccc1 [Idelalisib, (S)-2-(1-(9H-purin-6-ylamino)propyl)-5-fluoro-3-phenylquinazolin-4(3H)-one] | not sufficient to inhibit PI3K-γ | 1000 | single isoform inhibition; also recorded: sufficient to inhibit PI3K-δ | 4.8 |  |
| CC[C@H](Nc1ncnc2nc[nH]c12)c1oc2ccccc2c(=O)c1-c1cccc(F)c1 [Tenalisib, (S)-2-(1-((7H-purin-6-yl)amino)propyl)-3-(3-fluorophenyl)-4H-chromen-4-one] | did not meaningfully inhibit |  | did not meaningfully inhibit |  | PI3Kγ IC50 (PI3K-γ [1]; whole blood, inhibition of p-Akt in fMLP-stimulated monocytes): No inhibition; IC50 (PI3K-δ [5]; whole blood, inhibition of p-Akt in LPS-stimulated monocytes, read-out: PI3Kδ IC50): > 50 µM |
| CC(C)Oc1ccc(-c2nn([C@@H](C)c3oc4ccc(F)cc4c(=O)c3-c3cccc(F)c3)c3ncnc(N)c23)cc1F [Umbralisib] |  |  |  | 9.2 | IC50 (PI3K-γ [1]): 55 ± 16 µM |
